Species: Rattus norvegicus
Experiment: Open TG-GATES - Regimen: Single
Format: toxicity, organism-based, Sprague-Dawley
Set-up: regimen Single, gender Male, age 6 weeks
Conditions: in vivo, po, 20 mg/kg, route gavage, dose level Low; for APTT / Bas / Eos / Fbg / Hb / Ht / Lym / MCH / MCHC / MCV / Mono / Neu / PT / Plat / RBC / Ret / WBC: tissue Blood; for KIDNEY_L / KIDNEY_R / KIDNEY_TOTAL: tissue Kidney; for LIVER: tissue Liver; for A/G / ALP / ALT / AST / BUN / CRE / Ca / Cl / DBIL / GLC / IP / K / LDH / Na / PL / RALB / TBIL / TC / TG / TP / gamma-GTP: tissue Plasma

CC(CN1c2ccccc2Sc2ccccc21)N(C)C (configuration not stated) [PROMETHAZINE]
TERMINAL_BW (3 h): 208 g | APTT (3 h): 23.7 s | Bas (3 h): 0% | Eos (3 h): 0.6% | Fbg (3 h): 325.8 mg/dL | Hb (3 h): 13.5 g/dL | Ht (3 h): 41.2% | Lym (3 h): 81.4% | MCH (3 h): 20.7 pg | MCHC (3 h): 32.7% | MCV (3 h): 63.3 fL | Mono (3 h): 2.2% | Neu (3 h): 15.4% | PT (3 h): 16.4 s | Plat (3 h): 114.7 x10_4/uL | RBC (3 h): 651.2 x10_4/ul | Ret (3 h): 8.2% | WBC (3 h): 78 x10_2/uL | KIDNEY_L (3 h): 0.9 g | KIDNEY_R (3 h): 0.9 g | KIDNEY_TOTAL (3 h): 1.8 g | LIVER (3 h): 9.2 g | A/G (3 h): 1.2 | ALP (3 h): 1475 IU/L | ALT (3 h): 53.2 IU/L | AST (3 h): 73.6 IU/L | BUN (3 h): 10.6 mg/dL | CRE (3 h): 0.2 mg/dL | Ca (3 h): 10.5 mg/dL | Cl (3 h): 105.8 meq/L | DBIL (3 h): 0.018 mg/dL | GLC (3 h): 177.8 mg/dL | IP (3 h): 9.1 mg/dL | K (3 h): 4.3 meq/L | LDH (3 h): 202.2 IU/L | Na (3 h): 142.4 meq/L | PL (3 h): 140.2 mg/dL | RALB (3 h): 2.9 g/dL | TBIL (3 h): 0.02 mg/dL | TC (3 h): 82 mg/dL | TG (3 h): 60.4 mg/dL | TP (3 h): 5.4 g/dL | gamma-GTP (3 h): 1.2 IU/L | TERMINAL_BW (6 h): 211.9 g | APTT (6 h): 22.9 s | Bas (6 h): 0% | Eos (6 h): 0.6% | Fbg (6 h): 315 mg/dL | Hb (6 h): 13.2 g/dL | Ht (6 h): 40% | Lym (6 h): 83.4% | MCH (6 h): 20.5 pg | MCHC (6 h): 33.1% | MCV (6 h): 62.1 fL | Mono (6 h): 2.2% | Neu (6 h): 13.2% | PT (6 h): 16.9 s | Plat (6 h): 118.2 x10_4/uL | RBC (6 h): 644.8 x10_4/ul | Ret (6 h): 7.8% | WBC (6 h): 108.7 x10_2/uL | KIDNEY_L (6 h): 0.9 g | KIDNEY_R (6 h): 1 g | KIDNEY_TOTAL (6 h): 1.9 g | LIVER (6 h): 9 g | A/G (6 h): 1.3 | ALP (6 h): 1313.4 IU/L | ALT (6 h): 41.2 IU/L | AST (6 h): 72.2 IU/L | BUN (6 h): 10.4 mg/dL | CRE (6 h): 0.2 mg/dL | Ca (6 h): 10.9 mg/dL | Cl (6 h): 105.4 meq/L | DBIL (6 h): 0.014 mg/dL | GLC (6 h): 178.8 mg/dL | IP (6 h): 9.7 mg/dL | K (6 h): 4.3 meq/L | LDH (6 h): 161 IU/L | Na (6 h): 141.4 meq/L | PL (6 h): 131.2 mg/dL | RALB (6 h): 3.1 g/dL | TBIL (6 h): 0.03 mg/dL | TC (6 h): 76.2 mg/dL | TG (6 h): 69.8 mg/dL | TP (6 h): 5.5 g/dL | gamma-GTP (6 h): 1.2 IU/L | TERMINAL_BW (9 h): 213 g | APTT (9 h): 22.5 s | Bas (9 h): 0% | Eos (9 h): 0.4% | Fbg (9 h): 311.4 mg/dL | Hb (9 h): 13 g/dL | Ht (9 h): 39.2% | Lym (9 h): 77.8% | MCH (9 h): 20.2 pg | MCHC (9 h): 33% | MCV (9 h): 61.3 fL | Mono (9 h): 2% | Neu (9 h): 18.6% | PT (9 h): 16.8 s | Plat (9 h): 119.8 x10_4/uL | RBC (9 h): 639.8 x10_4/ul | Ret (9 h): 7.2% | WBC (9 h): 108 x10_2/uL | KIDNEY_L (9 h): 1 g | KIDNEY_R (9 h): 1 g | KIDNEY_TOTAL (9 h): 1.9 g | LIVER (9 h): 8.6 g | A/G (9 h): 1.2 | ALP (9 h): 1421.2 IU/L | ALT (9 h): 43.4 IU/L | AST (9 h): 69 IU/L | BUN (9 h): 11.4 mg/dL | CRE (9 h): 0.2 mg/dL | Ca (9 h): 10.9 mg/dL | Cl (9 h): 105 meq/L | DBIL (9 h): 0.008 mg/dL | GLC (9 h): 183.8 mg/dL | IP (9 h): 10.2 mg/dL | K (9 h): 4.3 meq/L | LDH (9 h): 152.8 IU/L | Na (9 h): 140.8 meq/L | PL (9 h): 123.2 mg/dL | RALB (9 h): 2.9 g/dL | TBIL (9 h): 0.018 mg/dL | TC (9 h): 72.2 mg/dL | TG (9 h): 51.4 mg/dL | TP (9 h): 5.4 g/dL | gamma-GTP (9 h): 1.4 IU/L | TERMINAL_BW (24 h): 220.8 g | APTT (24 h): 22.2 s | Bas (24 h): 0% | Eos (24 h): 0.8% | Fbg (24 h): 317.2 mg/dL | Hb (24 h): 13.4 g/dL | Ht (24 h): 39.8% | Lym (24 h): 79.8% | MCH (24 h): 20.8 pg | MCHC (24 h): 33.6% | MCV (24 h): 62 fL | Mono (24 h): 2.4% | Neu (24 h): 16.4% | PT (24 h): 16.6 s | Plat (24 h): 117.2 x10_4/uL | RBC (24 h): 643.4 x10_4/ul | Ret (24 h): 7.2% | WBC (24 h): 125.3 x10_2/uL | KIDNEY_L (24 h): 0.9 g | KIDNEY_R (24 h): 0.9 g | KIDNEY_TOTAL (24 h): 1.9 g | LIVER (24 h): 10.1 g | A/G (24 h): 1.3 | ALP (24 h): 1645.6 IU/L | ALT (24 h): 49.8 IU/L | AST (24 h): 76 IU/L | BUN (24 h): 17.4 mg/dL | CRE (24 h): 0.2 mg/dL | Ca (24 h): 11 mg/dL | Cl (24 h): 106 meq/L | DBIL (24 h): 0 mg/dL | GLC (24 h): 188 mg/dL | IP (24 h): 6.8 mg/dL | K (24 h): 4.1 meq/L | LDH (24 h): 154 IU/L | Na (24 h): 142.6 meq/L | PL (24 h): 146.2 mg/dL | RALB (24 h): 3.1 g/dL | TBIL (24 h): 0.002 mg/dL | TC (24 h): 78.2 mg/dL | TG (24 h): 109.2 mg/dL | TP (24 h): 5.5 g/dL | gamma-GTP (24 h): 1.6 IU/L
